Results reported in patent publication US6765129B1, “Overexpression of a DNA sequence coding for a 1-desoxy-d-xylulose-5-phosphate reductoisomerase in plants” (BASF Aktiengesellschaft, priority 1999, dated 2004).

Columns and labels:
barley seedlings = assay: plant assay: pigment neogenesis in etiolated barley seedlings; assay type: in vivo; conditions: barley seedlings subjected to fosmidomycin treatment, FIG. 8
Source text: Since this biosynthetic pathway is a metabolic pathway which is exclusively located in the chloroplasts, it offers optimal target enzymes for the development of inhibitors. Since, according to current knowledge, no enzyme which is identical with, or similar to, Arabidopsis thaliana DXPRI is present in other higher organisms, it can be assumed that inhibitors should have a very specific action on plants. The site of action of an inhibitor, namely fosmidomycin (3-(N-formyl-N-hydroxyamino)propylphosphonic acid; Fujisawa Pharmaceutical Co.) was identified as being a DXPRI. […] The following abbreviations were used in FIG. 7: DOX=1-deoxy-D-xylulose, ME=methylerythritol. The same action is found in a plant assay in which barley seedlings are subjected to fosmidomycin treatment and then examined for their chlorophyll and carotenoid content.
FIG. 8. Effect of fosmidomycin on pigment neogenesis in etiolated barley seedlings.

[1] = test system: Arabidopsis thaliana DXPRI; assay: DXPRI enzyme test (heterologously expressed in E. coli, TLC/autoradiography of 14C product); assay type: biochemical
Description: The transgenic strain was incubated in the growth medium “2×YT” (per 1 l: Bacto-tryptone 16 g, yeast extract 10 g, NaCl 5 g). The cells were grown at 37° C. to an OD560 nm of 0.6. After IPTG (1 MM) had been added, they were cultured for a further 10 minutes at 37° C. and then for a further 4 hours at 22° until they were harvested. The cells were centrifuged off and washed in 1% NaCl. After the cells had been disrupted (50 to 500 ml of cell culture (OD560 nm of 1.0) by means of a French press, a crude protein extract was used for enzyme tests (in 4 ml of extraction buffer (Tris/HCl (pH 7.5) 100 mM, MgCl2 5 mM, DTT 2 mM, PMSF 0.1 mM). For storage, the crude extracts together with 20% of glycerol were frozen at −20° C.
For the enzyme test, 15 μl (diluted to 1 to 7 mg of protein/ml) of protein extract were incubated for 30 minutes at 30° C. with MnCl2 (1 mM), NaF (5 mM), NADPH2 (0.5 mM) and ^14C-1-deoxy-D-xylulose-5-phosphate (0.25 mM, 3 kBq). The reaction was stopped at 100° C. (30 seconds) by adding CaCl2 (to 100 mM) and alkaline phosphatase (0.5 units). The product was dephosphorylated for 2 hours at 30° C. Detection was carried out by subjecting the product to separation by thin-layer chromatography on silica gel 60 (Merck) with acetone/ethyl acetate/water (50+50+2) with subsequent evaluation by Instant Imager. […]

mevalonate formation = conditions: cited from earlier work

| Compound | carotenoid content (barley seedlings) | chlorophyll content (barley seedlings) | inhibition of the enzymatic activity of DXPRI ([1]; biochemical assay, FIG. 7) | formation of ME (methylerythritol) ([1]; fosmidomycin at various concentrations, crude protein extract, 14C-1-deoxy-D-xylulose-5-phosphate substrate) | sterol biosynthesis in the cytoplasma (mevalonate formation; cytoplasma) | prenyl lipid formation in the plastids (mevalonate formation; plastids) |
| --- | --- | --- | --- | --- | --- | --- |
| O=CN(O)CCCP(=O)(O)O [fosmidomycin, 3-(N-formyl-N-hydroxyamino)propylphosphonic acid] | greatly reduced | greatly reduced | efficient inhibition | inhibited efficiently | – | – |
| mevinolin | – | – | – | – | inhibition | remains unaffected |
